In brackets after ≈: the same amount, converted by molar mass. Like-named read-outs stand apart in the source and are kept apart here.
Legend:
Mtb ClpP1P2 = Mtb ClpP1P2 (Mycobacterium tuberculosis, UniProt P9WPC3+P9WPC5); assay: Mtb ClpP1P2 peptidase assay (library screening and IC50 determination); format: biochemical
ClpP1P2 = assay: Jump dilution experiment; format: biochemical, Mycobacterium tuberculosis; settings: 10 µM, 1 h pre‐incubation, diluted to 100 nM, 4‐h course
M. tuberculosis H37Rv = assay: MIC against Mtb H37Rv; format: cell-based, Mycobacterium tuberculosis; settings: Mycobacterium tuberculosis, H37RV
[1] = test system: GH200 (scrambled sgRNA control); format: cell-based, M. bovis BCG

Sequence of Mtb ClpP1P2 (P9WPC3 16-214, one chain of several): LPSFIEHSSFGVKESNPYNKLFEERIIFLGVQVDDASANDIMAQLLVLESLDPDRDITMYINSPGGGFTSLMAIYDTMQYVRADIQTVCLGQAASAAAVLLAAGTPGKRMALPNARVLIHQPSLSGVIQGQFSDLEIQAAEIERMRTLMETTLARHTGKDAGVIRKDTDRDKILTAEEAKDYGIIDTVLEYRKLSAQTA

O=C(Oc1ccc(Cl)cc1)c1ccc(N2CCOCC2)c([N+](=O)[O-])c1 [GDI‐5755]
IC50 (Mtb ClpP1P2; Figure 2B, neat/synthesized compounds, read-out: ClpP1P2 IC50): ~2.1 µM
IC50 (Mtb ClpP1P2; enzyme pre‐incubated with inhibitor before adding substrate, decreased to nearly enzyme concentration, read-out: IC50 after prolonged pre‐incubation): ~0.13 µM
IC50 (Mtb ClpP1P2; library stocks, concentration–response, read-out: IC50): 2.09 µM
IC50 (Mtb ClpP1P2; resynthesized compound, screening assay conditions, three replicates, read-out: IC50): 2.4 ± 0.07 µM
recovery of peptidase activity after jump dilution (ClpP1P2): did not show recovery of peptidase activity
MIC90 (M. tuberculosis H37Rv): 100 µM (≈ 36.3 µg/mL)
MIC shift against GH200 on ATc induction [1]: did not show shifting
